What is called IC50 is the concentration that inhibits the measured activity by half.

The structures appear in SMILES notation.

The experiment deals with Factor D (Homo sapiens, UniProt P00746). Kind of experiment: Factor D esterolytic assay (Z-Lys-SBzl thioester substrate, DTNB, 405 nm). It is filed as biochemical. As to conditions: substrate Z-Lys-SBzl 1.29 mM, 100 mM HEPES, 500 mM NaCl, pH 7.5, 10% DMSO, tested a minimum of three times. The method in brief: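 Run in pH 7.5 HEPES (100 mM) with 500 mM NaCl and 10% DMSO, with compound preincubated at room temperature or not before adding 1.29 mM Z-Lys-SBzl. Free thiol released by Factor D reacts with DTNB, and rate is followed at 405 nm minus 690 nm over 600 s. IC50 derives from rate-based inhibition, minimum three replicates.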
Sequence of Factor D (P00746 26-253): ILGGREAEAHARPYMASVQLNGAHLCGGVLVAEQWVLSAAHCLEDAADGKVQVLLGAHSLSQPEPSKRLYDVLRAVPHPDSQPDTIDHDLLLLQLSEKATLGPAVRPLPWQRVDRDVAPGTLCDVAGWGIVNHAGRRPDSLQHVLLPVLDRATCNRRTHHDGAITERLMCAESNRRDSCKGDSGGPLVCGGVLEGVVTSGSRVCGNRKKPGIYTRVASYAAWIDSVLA
For `CCOC(=O)CCc1ccc2c(c1)c1c(N)ncnc1n2CC(=O)N1[C@H](C(=O)Nc2cccc(Br)n2)C[C@@]2(C)C[C@@H]12` [Compound 190a, ethyl 3-(4-amino-9-(2-((1R,3S,5R)-3-((6-bromopyridin-2-yl)carbamoyl)-5-methyl-2-azabicyclo[3.1.0]hexan-2-yl)-2-oxoethyl)-9H-pyrimido[4,5-b]indol-6-yl)propanoate], the IC50 was below 0.1 µM.

In the case of `C[C@@]12C[C@@H](C(=O)Nc3cccc(Br)n3)N(C(=O)Cn3c4cc(F)c(F)cc4c4c(N)ncnc43)[C@@H]1C2` [Compound 387a, (1R,3S,5R)-2-(2-(4-amino-6,7-difluoro-9H-pyrimido[4,5-b]indol-9-yl)acetyl)-N-(6-bromopyridin-2-yl)-5-methyl-2-azabicyclo[3.1.0]hexane-3-carboxamide], the IC50 is below 0.1 µM.

Regarding `Cc1cc2c(cc1Br)c1c(N)ncnc1n2CC(=O)N1[C@@H]2C[C@@H]2C[C@H]1C(=O)Nc1cccc(Br)n1` [Compound 379h, (1R,3S,5R)-2-(2-(4-amino-6-bromo-7-methyl-9H-pyrimido[4,5-b]indol-9-yl)acetyl)-N-(6-bromopyridin-2-yl)-2-azabicyclo[3.1.0]hexane-3-carboxamide], the IC50 is below 0.1 µM.

With `COc1ccc2c3c(N)ncnc3n(CC(=O)N3[C@@H]4C[C@@H]4C[C@H]3C(=O)Nc3cccc(Br)n3)c2c1` [Compound 36e, (1R,3S,5R)-2-(2-(4-amino-7-methoxy-9H-pyrimido[4,5-b]indol-9-yl)acetyl)-N-(6-bromopyridin-2-yl)-2-azabicyclo[3.1.0]hexane-3-carboxamide], the IC50 was below 0.1 µM.

On to `Nc1ncnc2c1c(Br)cn2CC(=O)N1C[C@H](F)C[C@H]1C(=O)NCc1cccc(Cl)c1F` [Compound 116b, (2S,4R)-1-(2-(4-amino-5-bromo-7H-pyrrolo[2,3-d]pyrimidin-7-yl)acetyl)-N-(3-chloro-2-fluorobenzyl)-4-fluoropyrrolidine-2-carboxamide], for which the 50% inhibitory concentration (IC50) lay in the range of 0.1 to 1 µM.

On to `COc1cc(C)c2c(c1)c1c(N)ncnc1n2CC(=O)N1[C@@H]2C[C@@H]2C[C@H]1C(=O)Nc1cccc(Br)n1` [Compound 257g, (1R,3S,5R)-2-(2-(4-amino-6-methoxy-8-methyl-9H-pyrimido[4,5-b]indol-9-yl)acetyl)-N-(6-bromopyridin-2-yl)-2-azabicyclo[3.1.0]hexane-3-carboxamide], for which the IC50 is below 0.1 µM.

Take `Cc1ccc(Br)nc1NC(=O)[C@@H]1C[C@H]2C[C@H]2N1C(=O)Cn1c2ncnc(N)c2c2cc(C(F)(F)F)cc(C)c21` [Compound 303a, (1R,3S,5R)-2-(2-(4-amino-8-methyl-6-(trifluoromethyl)-9H-pyrimido[4,5-b]indol-9-yl)acetyl)-N-(6-bromo-3-methylpyridin-2-yl)-2-azabicyclo[3.1.0]hexane-3-carboxamide]: the 50% inhibitory concentration (IC50) was below 0.1 µM.

Regarding `NC(=O)c1cn(CC(=O)N2C[C@H](F)C[C@H]2C(=O)NCc2cccc(Cl)c2F)c2ncnc(N)c12` [Compound 140a, 4-amino-7-(2-((2S,4R)-2-((3-chloro-2-fluorobenzyl)carbamoyl)-4-fluoropyrrolidin-1-yl)-2-oxoethyl)-7H-pyrrolo[2,3-d]pyrimidine-5-carboxamide], the IC50 is above 1 µM.

Regarding `CNC(=O)c1ccc2c(c1)c1c(N)ncnc1n2CC(=O)N1[C@@H]2C[C@@H]2C[C@H]1C(=O)Nc1cccc(Br)n1` [Compound 204a, 4-amino-9-(2-((1R,3S,5R)-3-((6-bromopyridin-2-yl)carbamoyl)-2-azabicyclo[3.1.0]hexan-2-yl)-2-oxoethyl)-N-methyl-9H-pyrimido[4,5-b]indole-6-carboxamide], the IC50 was below 0.1 µM.

In the case of `Cc1cc(C)c2c(c1)c1c(N)ncnc1n2CC(=O)N1[C@H](C(=O)Nc2cccc(Br)n2)C[C@@]2(C)C[C@@H]12` [Compound 191a, (1R,3S,5R)-2-(2-(4-amino-6,8-dimethyl-9H-pyrimido[4,5-b]indol-9-yl)acetyl)-N-(6-bromopyridin-2-yl)-5-methyl-2-azabicyclo[3.1.0]hexane-3-carboxamide], the IC50 was below 0.1 µM.

Regarding `COC(=O)c1ccc2c(c1)c1c(N)ncnc1n2CC(=O)N1[C@@H]2C[C@@H]2C[C@H]1C(=O)Nc1cccc(Br)n1` [Compound 39f, methyl 4-amino-9-(2-((1R,3S,5R)-3-((6-bromopyridin-2-yl)carbamoyl)-2-azabicyclo[3.1.0]hexan-2-yl)-2-oxoethyl)-9H-pyrimido[4,5-b]indole-6-carboxylate], the IC50 is below 0.1 µM.

Consider `COc1cc(F)cc2c3c(N)ncnc3n(CC(=O)N3[C@H](C(=O)Nc4cccc(Br)n4)C[C@@]4(C)C[C@@H]34)c12` [Compound 281a, (1R,3S,5R)-2-(2-(4-amino-6-fluoro-8-methoxy-9H-pyrimido[4,5-b]indol-9-yl)acetyl)-N-(6-bromopyridin-2-yl)-5-methyl-2-azabicyclo[3.1.0]hexane-3-carboxamide], for which the IC50 was below 0.1 µM.

Consider `O=C1NCc2cnc3c(ccn3CC(=O)N3C[C@H](F)C[C@H]3C(=O)NCc3cccc(Cl)c3F)c2N1` [Compound 235a, (2S,4R)—N-(3-chloro-2-fluorobenzyl)-4-fluoro-1-(2-(2-oxo-3,4-dihydro-1H-pyrrolo[3′,2′:5,6]pyrido[4,3-d]pyrimidin-7 (2H)-yl)acetyl)pyrrolidine-2-carboxamide], for which the IC50 was above 1 µM.

Regarding `Cc1cc(C(F)(F)F)nc2c3c(N)ncnc3n(CC(=O)N3[C@H](C(=O)Nc4cccc(Br)n4)C[C@@]4(C)C[C@@H]34)c12` [Compound 363a, (1R,3S,5R)-2-(2-(4-amino-8-methyl-6-(trifluoromethyl)-9H-pyrido[2′,3′:4,5]pyrrolo[2,3-d]pyrimidin-9-yl)acetyl)-N-(6-bromopyridin-2-yl)-5-methyl-2-azabicyclo[3.1.0]hexane-3-carboxamide], the IC50 is below 0.1 µM.

Take `Cc1ccc2c(c1)c1c(N)ncnc1n2CC(=O)N1[C@H](C(=O)Nc2cccc(Br)n2)C[C@@]2(C)C[C@@H]12` [Compound 8b, (1R,3S,5R)-2-(2-(4-amino-6-methyl-9H-pyrimido[4,5-b]indol-9-yl)acetyl)-N-(6-bromopyridin-2-yl)-5-methyl-2-azabicyclo[3.1.0]hexane-3-carboxamide]: the IC50 is below 0.1 µM.

On to `COc1cc(OC)c2c(c1)c1c(N)ncnc1n2CC(=O)N1[C@@H]2C[C@@H]2C[C@H]1C(=O)Nc1cccc(Br)n1` [Compound 278g, (1R,3S,5R)-2-(2-(4-amino-6,8-dimethoxy-9H-pyrimido[4,5-b]indol-9-yl)acetyl)-N-(6-bromopyridin-2-yl)-2-azabicyclo[3.1.0]hexane-3-carboxamide], for which the IC50 is below 0.1 µM.

For `Cc1cc(C(F)(F)F)cc2c3c(N)ncnc3n(CC(=O)N3[C@@H]4C[C@@H]4C[C@H]3C(=O)Nc3cccc(C(F)(F)F)n3)c12` [Compound 349c, (1R,3S,5R)-2-(2-(4-amino-8-methyl-6-(trifluoromethyl)-9H-pyrimido[4,5-b]indol-9-yl)acetyl)-N-(6-(trifluoromethyl)pyridin-2-yl)-2-azabicyclo[3.1.0]hexane-3-carboxamide], the IC50 is below 0.1 µM.

For the compound `Cc1cc2c3c(N)ncnc3n(CC(=O)N3[C@H](C(=O)Nc4cccc(Br)n4)C[C@@]4(C)C[C@@H]34)c2cc1F` [Compound 385a, (1R,3S,5R)-2-(2-(4-amino-7-fluoro-6-methyl-9H-pyrimido[4,5-b]indol-9-yl)acetyl)-N-(6-bromopyridin-2-yl)-5-methyl-2-azabicyclo[3.1.0]hexane-3-carboxamide], the IC50 is below 0.1 µM.

The values are drawn from patent US12679843B2, “Pyrrolopyrimidine amines as complement inhibitors” (BioCryst Pharmaceuticals, Inc., priority 2020, dated 2026).
